In brackets after ≈: the same amount, converted by molar mass. A value given as a limit tells only on which side of the number the result lay.

The values that follow come from ChEMBL document CHEMBL4616678, “Design, Synthesis, and Physicochemical and Pharmacological Profiling of 7-Hydroxy-5-oxopyrazolo[4,3-b]pyridine-6-carboxamide Derivatives with Antiosteoarthritic Activity In Vivo” (J Med Chem, 2020).

Data set [1] deals with T1, Cannabinoid receptor 2 (Homo sapiens, UniProt P34972). The data set can be described thus: Agonist activity at recombinant human CB2R expressed in CHOK1 cells assessed as inhibition of NKH477-stimulated intracellular cAMP levels after 30 mins by chemiluminescent detection based cAMP Hunter assay. The format is functional, cell-based, CHO-K1. For orientation: Cyclic AMP is a second messenger, typically raised through Gs and lowered through Gi signalling.

Data set [2] concerns the target T1, Cannabinoid receptor 2. The data set can be described thus: Inverse agonist activity at recombinant human CB2R expressed in CHOK1 cells assessed as increase in NKH477-stimulated intracellular cAMP levels after 30 mins by chemiluminescent based cAMP Hunter assay. It is filed as functional, cell-based, CHO-K1.
The target of data set [3] is T1, Cannabinoid receptor 2. The data set can be described thus: Displacement of [3H]-CP-55,940 from recombinant human CB2R expressed in HEK293 cell membranes. (Loss of bound radioactivity is the signal in a displacement assay; it reports binding, not function.)
Data set [4] in a line: Cytotoxicity against human NHAC-kn assessed as reduction in cell viability after 1 to 14 days by Neutral red dye-based UV-visible spectrophotometer analysis. The format is functional.
A further data set concerns NIH3T3. Put plainly: Cytotoxicity against mouse NIH/3T3 assessed as reduction in cell viability after 1 to 14 days by Neutral red dye-based UV-visible spectrophotometer analysis. The format is functional.
Data set [5] can be described thus: Kinetic solubility of the compound at pH 7.4 by HPLC-UV method. It is filed as physicochemical. To be noted: buffer, read-out: Kinetic_solubility.
Another data set concerns the target Cannabinoid receptor 1 (Homo sapiens, UniProt P21554). Put plainly: Displacement of [3H]-CP-55,940 from recombinant human CB1R expressed in HEK293 cell membranes.
The next data set is filed under the species Homo sapiens. Put plainly: Selectivity index, ratio of Ki for recombinant human CB1R expressed in HEK293 cell membranes to Ki for recombinant human CB2R expressed in HEK293 cell membranes. It is filed as cell-based.
Data set [6] can be described thus: Kinetic solubility of the compound at pH 1.0 by HPLC-UV method. The format is physicochemical. To be noted: buffer, read-out: Kinetic_solubility.
Data set [7] is described as follows: Lipophilicity, log P of the compound by UV-vis spectra analysis. The format is physicochemical. To be noted: octanol/water.
The nature of data set [8]: Ionization Constants, pKa of the compound by UV-vis spectra analysis. The format is physicochemical.

T1 sequence (P34972 whole entry): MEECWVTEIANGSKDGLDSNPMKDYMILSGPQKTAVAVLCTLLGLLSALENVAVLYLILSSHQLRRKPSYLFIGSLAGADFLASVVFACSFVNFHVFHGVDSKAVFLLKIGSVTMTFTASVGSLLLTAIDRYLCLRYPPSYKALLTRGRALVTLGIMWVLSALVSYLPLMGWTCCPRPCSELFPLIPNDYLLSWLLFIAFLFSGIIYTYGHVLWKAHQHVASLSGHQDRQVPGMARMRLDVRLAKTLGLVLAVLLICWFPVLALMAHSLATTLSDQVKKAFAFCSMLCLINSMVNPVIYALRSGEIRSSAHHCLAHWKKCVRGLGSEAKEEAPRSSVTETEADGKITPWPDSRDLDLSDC
Sequence of Cannabinoid receptor 1 (P21554 whole entry): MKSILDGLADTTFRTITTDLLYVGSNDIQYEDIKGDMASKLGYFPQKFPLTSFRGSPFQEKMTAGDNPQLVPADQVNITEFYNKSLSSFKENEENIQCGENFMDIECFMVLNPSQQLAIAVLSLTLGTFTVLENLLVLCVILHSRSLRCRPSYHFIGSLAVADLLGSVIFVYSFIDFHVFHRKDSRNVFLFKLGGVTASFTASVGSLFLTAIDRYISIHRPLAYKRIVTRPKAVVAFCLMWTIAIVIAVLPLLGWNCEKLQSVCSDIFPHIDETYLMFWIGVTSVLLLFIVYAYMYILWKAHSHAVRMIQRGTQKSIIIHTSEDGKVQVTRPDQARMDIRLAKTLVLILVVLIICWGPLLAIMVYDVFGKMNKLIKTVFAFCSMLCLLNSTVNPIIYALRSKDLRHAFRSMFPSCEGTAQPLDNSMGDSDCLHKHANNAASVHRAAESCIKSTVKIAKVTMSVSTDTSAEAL

One may read the EC50 as the concentration that produces a half-maximal response. Turning to `CCCC(C)(C)c1ccc2c(c1)OC(C)(C)[C@@H]1CC=C(C)C[C@@H]21`, the concentration for a half-maximal effect (EC50) at Cannabinoid receptor 2 [1] stood at 391 nM.

A word on the Ki: it is a dissociation constant, usually derived from enzyme kinetics or from competition with a known ligand. For orientation: IC50 means the point on the concentration scale where inhibition reaches its midpoint. Consider `CC(=O)OCCCCn1c(=O)c(C(=O)NC23CC4CC(CC(C4)C2)C3)c(O)c2nn(C)cc21`, for which the concentration for a half-maximal effect (EC50) on Cannabinoid receptor 2 [2] turned out to be 2080 nM. Also, the Ki at Cannabinoid receptor 2 [3] is 17.3 nM; at Cannabinoid receptor 1, greater than 1000 nM. For the same compound, the IC50 in data set [4] was 7500 nM; in the data set with NIH3T3, 25000 nM. The solubility kinetic in data set [5] was found to be 1.3 µg/mL (≈ 2.85 µM).

For the compound `CCCn1c(=O)c(C(=O)NC23CC4CC(CC(C4)C2)C3)c(O)c2nn(CCO)cc21`, the Ratio Ki in the data set listed under Homo sapiens was 6. The values for the Ki on Cannabinoid receptor 2 [3] and on Cannabinoid receptor 1 were 159 nM and greater than 1000 nM, respectively. The solubility kinetic in data set [6] came to 3.4 µg/mL (≈ 8.2 µM); in [5] it was 3.9 µg/mL (≈ 9.41 µM).

In the case of `CCCCCN1C(=O)C(C(=O)NC23CC4CC(CC(C4)C2)C3)=C(O)C2C1C=NN2C` (stereo unspecified), the EC50 on Cannabinoid receptor 2 [1] is 252 nM. For the same compound, the Ratio Ki in the data set listed under Homo sapiens was determined as 62. The Ki on Cannabinoid receptor 2 [3] came out at 0.9 nM; at Cannabinoid receptor 1, 56 nM. In addition, the results for the solubility kinetic in data set [6] and in data set [5] were 0.4 µg/mL (≈ 0.965 µM) and 1.08 µg/mL (≈ 2.61 µM), respectively.

On to `CCCCCn1cc(C(=O)NC23CC4CC(CC(C4)C2)C3)c(=O)c2cc(C(C)C)ccc21`, for which, in [5], the solubility kinetic amounted to 1 µg/mL (≈ 2.3 µM).

For orientation: logP means the decadic logarithm of the partition coefficient of the neutral form, usually between octanol and water. A low value points to lower lipophilicity. For orientation: pKa means the pH at which an ionisable group is half protonated. Low readings indicate a stronger acid or weaker base, high ones a weaker acid or stronger base. With `CCCCn1c(=O)c(C(=O)NC23CC4CC(CC(C4)C2)C3)c(O)c2nn(C)cc21`, the concentration for a half-maximal effect (EC50) on Cannabinoid receptor 2 [2] was found to be 370 nM. For the same compound, the Ki was found to be 2.5 nM at Cannabinoid receptor 2 [3] and 231 nM at Cannabinoid receptor 1. Besides, the concentration for half-maximal inhibition (IC50) in data set [4] was 7500 nM; with NIH3T3, 12500 nM. Also, the figures for the solubility kinetic in [6] and in data set [5] were 0.23 µg/mL (≈ 0.577 µM) and 1.9 µg/mL (≈ 4.77 µM), respectively. The compound further showed a logP in data set [7] of 5.3. In addition, the pKa in data set [8] was 8.6.

`Cn1cc2c(n1)c(O)c(C(=O)NC13CC4CC(CC(C4)C1)C3)c(=O)n2CCCCF`: the EC50 at Cannabinoid receptor 2 [2] is 270 nM. For the same compound, the Ki on Cannabinoid receptor 2 [3] turned out to be 2.1 nM; on Cannabinoid receptor 1, 532 nM. Also, the IC50 stood at 7500 nM in data set [4] and 12500 nM with NIH3T3. Moreover, the results for the solubility kinetic in [6] and in data set [5] were 0.6 µg/mL (≈ 1.44 µM) and 0.8 µg/mL (≈ 1.92 µM), respectively.

In the case of `Cn1cc2c(n1)c(O)c(C(=O)NC13CC4CC(CC(O)(C4)C1)C3)c(=O)n2CCCCF`, on Cannabinoid receptor 2 [2], the EC50 was found to be 590 nM. Besides, the Ki is 6.2 nM at Cannabinoid receptor 2 [3] and greater than 1000 nM on Cannabinoid receptor 1. Further, the IC50 was 12500 nM in data set [4] and 25000 nM in the data set with NIH3T3. In addition, the solubility kinetic in data set [6] was determined as 39.9 µg/mL (≈ 92.3 µM); in [5], 37.6 µg/mL (≈ 86.9 µM). Moreover, the logP in [7] is 3.15. Further, the pKa in data set [8] worked out at 7.97.

Consider `CN1N=CC2C1C(O)=C(C(=O)NC13CC4CC(CC(O)(C4)C1)C3)C(=O)N2CCCCF` (stereo unspecified), for which the EC50 at Cannabinoid receptor 2 [1] is 71.8 nM. For the same compound, the inhibition constant (Ki) at Cannabinoid receptor 2 [3] was determined as 18.9 nM; on Cannabinoid receptor 1, 161 nM. The results for the 50% inhibitory concentration (IC50) (in data set [4]; in the data set on NIH3T3) were 7500 nM and 25000 nM, respectively. Besides, the figures for the solubility kinetic in [6] and in data set [5] were 9.1 µg/mL (≈ 20.9 µM) and 15.1 µg/mL (≈ 34.8 µM), respectively.

For `CCCCn1c(=O)c(C(=O)NC23CC4CC(CC(C4)C2)C3)c(O)c2nn(CCO)cc21`, the results for the Ki at Cannabinoid receptor 2 [3] and on Cannabinoid receptor 1 were 18.4 nM and greater than 1000 nM, respectively. Further, the IC50 in data set [4] turned out to be 2500 nM; in the data set with NIH3T3, 12500 nM. For the same compound, the solubility kinetic in data set [6] is 1.6 µg/mL (≈ 3.73 µM); in data set [5], 2.1 µg/mL (≈ 4.9 µM).

Consider `CCCCCn1c(=O)c(C(=O)NC23CC4CC(CC(C4)C2)C3)c(O)c2nn(CCO)cc21`, for which the half-maximal effective concentration (EC50) on Cannabinoid receptor 2 [2] was determined as 880 nM. The Ki at Cannabinoid receptor 2 [3] stood at 4.8 nM; at Cannabinoid receptor 1, 108 nM. Further, the IC50 in data set [4] was determined as 2500 nM; with NIH3T3 it was 7500 nM. Besides, the solubility kinetic amounted to 0.38 µg/mL (≈ 0.859 µM) in data set [6] and 0.7 µg/mL (≈ 1.58 µM) in data set [5].

`CCCCCn1c(=O)c(C(=O)NC23CC4CC(CC(C4)C2)C3)c(O)c2nn(C)cc21`: on Cannabinoid receptor 2 [2], the EC50 amounted to 1180 nM. Further, the Ratio Ki in the data set filed under Homo sapiens is 167. Also, the Ki on Cannabinoid receptor 2 [3] came out at 0.18 nM; at Cannabinoid receptor 1, 33.5 nM. Also, the values for the solubility kinetic in [6] and in data set [5] were 2.9 µg/mL (≈ 7.03 µM) and 1.9 µg/mL (≈ 4.61 µM), respectively.

`CCCn1c(=O)c(C(=O)NC23CC4CC(CC(C4)C2)C3)c(O)c2nn(CCOC(C)=O)cc21`: the Ratio Ki in the data set listed under Homo sapiens worked out at 5. The results for the Ki at Cannabinoid receptor 2 [3] and at Cannabinoid receptor 1 were 186 nM and greater than 1000 nM, respectively. In addition, the solubility kinetic in data set [5] stood at 1.1 µg/mL (≈ 2.41 µM).

Consider `CCCCN1C(=O)C(C(=O)NC23CC4CC(CC(O)(C4)C2)C3)=C(O)C2C1C=NN2C` (stereo unspecified), for which the Ki turned out to be 19.3 nM on Cannabinoid receptor 2 [3] and 86.9 nM at Cannabinoid receptor 1. The IC50 in [4] was found to be 7500 nM; in the data set with NIH3T3, 25000 nM. In addition, the solubility kinetic was determined as 2.1 µg/mL (≈ 5.04 µM) in data set [6] and 4.6 µg/mL (≈ 11 µM) in [5]. Further, the logP in data set [7] was 4.85. Also, the pKa in data set [8] was found to be 7.56.

Take `Cn1cc2c(n1)c(O)c(C(=O)NC13CC4CC(CC(C4)C1)C3)c(=O)n2CCCCO`: the EC50 on Cannabinoid receptor 2 [2] is 1450 nM. Also, the figures for the Ki at Cannabinoid receptor 2 [3] and at Cannabinoid receptor 1 were 14.3 nM and greater than 1000 nM, respectively. Besides, the IC50 in data set [4] is 12500 nM; with NIH3T3, 25000 nM. Moreover, the figures for the solubility kinetic in data set [6] and in data set [5] were 2.53 µg/mL (≈ 6.1 µM) and 3.2 µg/mL (≈ 7.72 µM), respectively.

Consider `CCCCCn1c(=O)c(C(=O)NC23CC4CC(CC(O)(C4)C2)C3)c(O)c2nn(CCO)cc21`, for which the results for the inhibition constant (Ki) at Cannabinoid receptor 2 [3] and at Cannabinoid receptor 1 were 57.1 nM and 492 nM, respectively. The IC50 is 2500 nM in [4] and 7500 nM in the data set on NIH3T3. For the same compound, the solubility kinetic worked out at 9.7 µg/mL (≈ 21.2 µM) in data set [6] and 15 µg/mL (≈ 32.7 µM) in [5].

In the case of `CN1N=CC2C1C(O)=C(C(=O)NC13CC4CC(CC(C4)C1)C3)C(=O)N2CCCCF` (stereo unspecified), at Cannabinoid receptor 2 [1], the EC50 is 21.9 nM. The Ki at Cannabinoid receptor 2 [3] was found to be 1.4 nM; at Cannabinoid receptor 1, 39.3 nM. In addition, the IC50 (in data set [4]; with NIH3T3) was 12500 nM throughout. Besides, the figures for the solubility kinetic in data set [6] and in data set [5] were 0.7 µg/mL (≈ 1.67 µM) and 1.5 µg/mL (≈ 3.58 µM), respectively.

On to `COc1ccc(C(=O)c2c(C)n(CCN3CCOCC3)c3cc(I)ccc23)cc1`, for which the EC50 on Cannabinoid receptor 2 [2] was determined as 3150 nM.

With `CCCCn1c(=O)c(C(=O)NC23CC4CC(CC(O)(C4)C2)C3)c(O)c2nn(C)cc21`, the Ki is 10.6 nM at Cannabinoid receptor 2 [3] and greater than 1000 nM at Cannabinoid receptor 1. Moreover, the IC50 in data set [4] was found to be 2500 nM; in the data set on NIH3T3, 7500 nM. Moreover, the results for the solubility kinetic in data set [6] and in data set [5] were 15 µg/mL (≈ 36.2 µM) and 20.9 µg/mL (≈ 50.4 µM), respectively. Moreover, the log partition coefficient (logP) in [7] came to 4.08. In addition, in data set [8], the pKa worked out at 7.9.
